Assay results reported in PubChem BioAssay (NCI).
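1) Cells in 96-well plates. 2) Compound, 48 h, 5 concentrations. 3) Linear interpolation between surrounding doses. 4) Unreached endpoint = highest concentration. The concentration for full growth arrest is given as TGI.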

How the values were obtained:
Assay in all cases: NCI-60 cell line screen, 48 h
[1] = system: 786-0 renal
[2] = system: A549 NSCLC
[3] = system: ACHN renal
[4] = system: BT-549 breast
[5] = system: CAKI-1 renal
[6] = system: CCRF-CEM leukemia
[7] = system: COLO 205 colon
[8] = system: DU-145 prostate
[9] = system: EKVX NSCLC
[10] = system: HCC-2998 colon
[11] = system: HCT-116 colon
[12] = system: HCT-15 colon
[13] = system: HL-60(TB) leukemia
[14] = system: HOP-62 NSCLC
[15] = system: HOP-92 NSCLC
[16] = system: HS 578T breast
[17] = system: HT29 colon
[18] = system: IGROV1 ovarian
[19] = system: K-562 leukemia
[20] = system: KM12 colon
[21] = system: LOX IMVI melanoma
[22] = system: M14 melanoma
[23] = system: MALME-3M melanoma
[24] = system: MCF7 breast
[25] = system: MDA-MB-231 breast
[26] = system: MDA-MB-435
[27] = system: MOLT-4 leukemia
[28] = system: NCI-H226 lung
[29] = system: NCI-H23 lung
[30] = system: NCI-H460 lung
[31] = system: NCI-H522 lung
[32] = system: NCI/ADR-RES ovarian
[33] = system: OVCAR-3 ovarian
[34] = system: OVCAR-4 ovarian
[35] = system: OVCAR-5 ovarian
[36] = system: OVCAR-8 ovarian
[37] = system: PC-3 prostate
[38] = system: RPMI-8226 leukemia
[39] = system: SF-268 CNS
[40] = system: SF-539 CNS
[41] = system: SK-MEL-28 melanoma
[42] = system: SK-MEL-5 melanoma
[43] = system: SK-OV-3 ovarian
[44] = system: SN12C renal
[45] = system: SNB-75 CNS
[46] = system: SR leukemia
[47] = system: SW-620 colon
[48] = system: TK-10 renal
[49] = system: U251 CNS
[50] = system: UACC-257 melanoma
[51] = system: UACC-62 melanoma
[52] = system: UO-31 renal
[53] = system: A498 renal
[54] = system: RXF 393 renal
[55] = system: SF-295 CNS
[56] = system: SK-MEL-2 melanoma
[57] = system: SNB-19 CNS

SMILES: COc1ccc(/C=C2\CCCc3ccccc3C2=O)cc1
- TGI [1]: 12.2 µM
- TGI [2]: > 54.4 µM
- TGI [3]: > 100 µM
- TGI [4]: 17.3 µM
- TGI [5]: > 66.7 µM
- TGI [6]: 24.8 µM
- TGI [7]: 0.557 µM
- TGI [8]: 1.74 µM
- TGI [9]: > 100 µM
- TGI [10]: 28.2 µM
- TGI [11]: 20.5 µM
- TGI [12]: > 33.1 µM
- TGI [13]: 9.55 µM
- TGI [14]: 76.7 µM
- TGI [15]: 88.1 µM
- TGI [16]: 37.1 µM
- TGI [17]: 14.6 µM
- TGI [18]: > 100 µM
- TGI [19]: > 100 µM
- TGI [20]: 17.6 µM
- TGI [21]: 17.4 µM
- TGI [22]: 22.2 µM
- TGI [23]: > 100 µM
- TGI [24]: 99.2 µM
- TGI [25]: 42.1 µM
- TGI [26]: 53.1 µM
- TGI [27]: 35.3 µM
- TGI [28]: 2.98 µM
- TGI [29]: 7.76 µM
- TGI [30]: > 100 µM
- TGI [31]: 1.71 µM
- TGI [32]: > 100 µM
- TGI [33]: 0.422 µM
- TGI [34]: > 100 µM
- TGI [35]: > 100 µM
- TGI [36]: > 44.5 µM
- TGI [37]: > 100 µM
- TGI [38]: 21.5 µM
- TGI [39]: 5.53 µM
- TGI [40]: 5.11 µM
- TGI [41]: > 100 µM
- TGI [42]: 16 µM
- TGI [43]: > 60.6 µM
- TGI [44]: 16.9 µM
- TGI [45]: > 82.3 µM
- TGI [46]: > 32 µM
- TGI [47]: > 100 µM
- TGI [48]: > 96.6 µM
- TGI [49]: 35.1 µM
- TGI [50]: 37.8 µM
- TGI [51]: 26 µM
- TGI [52]: > 100 µM

SMILES: COc1cc(C2c3cc4c(cc3OC(O)C2C)OCO4)cc(OC)c1OC (stereo not drawn)
- TGI [1]: > 100 µM
- TGI [53]: 50.2 µM
- TGI [3]: > 88.1 µM
- TGI [4]: > 59.2 µM
- TGI [5]: 37.4 µM
- TGI [8]: > 100 µM
- TGI [9]: > 100 µM
- TGI [10]: > 41.8 µM
- TGI [11]: > 69.9 µM
- TGI [12]: > 100 µM
- TGI [13]: 0.503 µM
- TGI [14]: > 100 µM
- TGI [15]: 7.53 µM
- TGI [16]: > 100 µM
- TGI [18]: 51.1 µM
- TGI [19]: 41.1 µM
- TGI [20]: 27.2 µM
- TGI [21]: > 100 µM
- TGI [22]: 30.2 µM
- TGI [23]: 73.2 µM
- TGI [24]: > 55.9 µM
- TGI [25]: 17.4 µM
- TGI [26]: 0.156 µM
- TGI [27]: > 31.9 µM
- TGI [28]: 7.33 µM
- TGI [30]: > 51.3 µM
- TGI [31]: 0.713 µM
- TGI [32]: 0.504 µM
- TGI [33]: 5.25 µM
- TGI [34]: > 79.4 µM
- TGI [35]: > 100 µM
- TGI [36]: > 20.5 µM
- TGI [37]: > 100 µM
- TGI [38]: 2.07 µM
- TGI [54]: > 100 µM
- TGI [39]: > 58.9 µM
- TGI [55]: > 48.8 µM
- TGI [40]: 0.92 µM
- TGI [56]: 13.3 µM
- TGI [41]: > 100 µM
- TGI [42]: 9.98 µM
- TGI [43]: 23.3 µM
- TGI [44]: > 65 µM
- TGI [57]: > 100 µM
- TGI [45]: 4.93 µM
- TGI [47]: > 100 µM
- TGI [48]: > 100 µM
- TGI [49]: > 40.1 µM
- TGI [50]: > 100 µM
- TGI [51]: > 100 µM
- TGI [52]: 40.7 µM
